Reference: ChEMBL document CHEMBL3046277, “Inheritance mode and realized heritability of resistance to imidacloprid in the brown planthopper, Nilaparvata lugens (Stål) (Homoptera: Delphacidae)” (2009)
Converted amounts (≈) assume the structure as drawn.

Key:
Assay type in all cases: functional
Nilaparvata lugens [1] = test: (§1) Insecticidal activity against Nilaparvata lugens (brown planthopper) offspring obtained after 23 selected generations in rice stem assessed as mortality treated for 30 secs prior to nymph infestation measured at 96 hr post-drug treatment by rice-stem dipping method; conditions: read-out: Log10LC50 (converted)
Nilaparvata lugens [2] = test: as §1, with “F1' progeny generated from reciprocal cross between male imidacloprid-susceptible strain and female imidaclporid-resistant strain” for “offspring obtained after 23 selected generations”
Nilaparvata lugens [3] = test: Insecticidal activity against 23 generation selection pressure-induced imidacloprid-resistance Nilaparvata lugens (brown planthopper) at third instar nymph stage in rice stem assessed as mortality treated for 30 secs prior to nymph infestation measured at 96 hr post-drug treatment by rice-stem dipping method
Nilaparvata lugens [4] = test: as §1, with “F1 progeny generated from reciprocal cross between female imidacloprid-susceptible strain and male imidaclporid-resistant strain” for “offspring obtained after 23 selected generations”
Nilaparvata lugens [5] = test: Resistance ratio of LC50 for Nilaparvata lugens (brown planthopper) F1 progeny to LC50 for imidacloprid-susceptible brown planthopper
Nilaparvata lugens [6] = test: Resistance ratio of LC50 for imidacloprid-resistance Nilaparvata lugens (brown planthopper) to LC50 for imidacloprid-susceptible brown planthopper
Nilaparvata lugens [7] = test: Insecticidal activity against third instar nymph stage of imidacloprid-susceptible Nilaparvata lugens (brown planthopper) in rice stem assessed as mortality treated for 30 secs prior to nymph infestation measured at 96 hr post-drug treatment by rice-stem dipping method
Nilaparvata lugens [8] = test: Insecticidal activity against Nilaparvata lugens (brown planthopper) parental generation in rice stem assessed as mortality treated for 30 secs prior to nymph infestation measured at 96 hr post-drug treatment by rice-stem dipping method; conditions: read-out: Log10LC50 (converted)
Nilaparvata lugens [9] = test: Resistance ratio of LC50 for Nilaparvata lugens (brown planthopper) F1' progeny to LC50 for imidacloprid-susceptible brown planthopper

SMILES: O=[N+]([O-])/N=C1\NCCN1Cc1ccc(Cl)nc1 [IMIDACLOPRID]
- LC50 (Nilaparvata lugens [1]): 9.43 mM
- LC50 (Nilaparvata lugens [2]): 30.2 µg/mL (≈ 118 µM)
- LC50 (Nilaparvata lugens [3]): 106 µg/mL (≈ 415 µM)
- LC50 (Nilaparvata lugens [4]): 25.7 µg/mL (≈ 100 µM)
- RatioLC50 (Nilaparvata lugens [5]): 233.45
- RatioLC50 (Nilaparvata lugens [6]): 964.09
- LC50 (Nilaparvata lugens [7]): 0.11 µg/mL (≈ 0.43 µM)
- LC50 (Nilaparvata lugens [8]): 62.5 mM
- RatioLC50 (Nilaparvata lugens [9]): 274.45
